# In patent US20220144812A1, “QUINOLINE DERIVATIVES AND THEIR USE FOR THE TREATMENT OF CANCER” (Epizyme, Inc., priority 2019, published 2022):
# How the values were obtained:
# Assay type in all cases: cell-based
# [1] = test system: BFTC905 bladder cell line; assay: 7-day proliferation assay, BFTC905; settings: Homo sapiens, BFTC-905, 168 h; BFTC905, 7 days, CellTiter-Glo
# Protocol: (§1) This example describes methods and materials for 7-day proliferation assay.
# (§2) A total of 22 bladder cell lines were used (see table below). Cell lines were cultured in recommended growth media according to supplier.
# (§3) Cells were in culture media at a density optimized for a 7-day culture in a final volume of 150 μL per well in white opaque 96-well plates. Cells were allowed to adhere for several hours (4-6 h) then compounds were added with HPD300 Digital Dispenser and placed into the incubator at 37° C., 5% CO2 for 7 days. After 7 days incubation, 100 μL of CellTiter-Glo® Luminescent Cell Viability Assay (Promega-G7573) reagents were added per well. After 20 minutes incubation luminescence was measured in plate reader. IC50 were calculated from a non-linear logarithmic growth curve.
# (§4) IC50 values (nanomolar (nM)) are summarized in the table below, which depicts the inhibitory effect of certain compounds in bladder cell lines.
# JMSU1 bladder cell line = assay: 7-day proliferation assay, JMSU1; settings: JMSU-1, 168 h; JMSU1, 7 days, CellTiter-Glo
# Protocol: as §1, §2, §3, §4
# 647V bladder cell line = assay: 7-day proliferation assay, 647V; settings: Homo sapiens, 168 h, 7 days, CellTiter-Glo
# Protocol: as §1, §2, §3, §4
# SW780 bladder cell line = assay: 7-day proliferation assay, SW780; settings: Homo sapiens, 168 h; SW780, 7 days, CellTiter-Glo
# Protocol: as §1, §2, §3, §4
# [2] = test system: H3K18Ac in HB-CLS-2 cells; assay: H3K18AC in-cell western (ICW) assay; settings: H3K18Ac in-cell western; read-out: CREBBP ICW IC50
# Procedure, shortened: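 HB-CLS-2 cells seeded 16–24 hours before 2 hr compound treatment at 37° C, 5% CO2, then methanol-fixed. H3K18Ac detected with rabbit monoclonal primary (overnight, 4° C) and 800CW anti-rabbit secondary; DRAQ5 stained DNA. Plates imaged at 700 and 800 nm for integrated intensity; IC50 in μM.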
# BC3C bladder cell line = assay: 7-day proliferation assay, BC3C; settings: 168 h, 7 days, CellTiter-Glo
# Protocol: as §1, §2, §3, §4
# VMCUB1 bladder cell line = assay: 7-day proliferation assay, VMCUB1; settings: Homo sapiens, VM-CUB-1, 168 h; VMCUB1, 7 days, CellTiter-Glo
# Protocol: as §1, §2, §3, §4
# KU1919 bladder cell line = assay: 7-day proliferation assay, KU1919; settings: Homo sapiens, KU-19-19, 168 h; KU1919, 7 days, CellTiter-Glo
# Protocol: as §1, §2, §3, §4
# 5637 bladder cell line = assay: 7-day proliferation assay, 5637; settings: 168 h; 5637, 7 days, CellTiter-Glo
# Protocol: as §1, §2, §3, §4
# SCABER bladder cell line = assay: 7-day proliferation assay, SCABER; settings: Homo sapiens, 168 h, 7 days, CellTiter-Glo
# Protocol: as §1, §2, §3, §4
# HT1197 bladder cell line = assay: 7-day proliferation assay, HT1197; settings: Homo sapiens, 168 h; HT1197, 7 days, CellTiter-Glo
# Protocol: as §1, §2, §3, §4
# RT4 bladder cell line = assay: 7-day proliferation assay, RT4; settings: 168 h; RT4, 7 days, CellTiter-Glo
# Protocol: as §1, §2, §3, §4
# SW1710 bladder cell line = assay: 7-day proliferation assay, SW1710; settings: Homo sapiens, 168 h; SW1710, 7 days, CellTiter-Glo
# Protocol: as §1, §2, §3, §4
# CLS439 bladder cell line = assay: 7-day proliferation assay, CLS439; settings: 168 h; CLS439, 7 days, CellTiter-Glo
# Protocol: as §1, §2, §3, §4
IC50 (SW780 bladder cell line) [µM],IC50 [2] [µM],IC50 (SW1710 bladder cell line) [µM],Compound,IC50 [1] [µM],IC50 (JMSU1 bladder cell line) [µM],IC50 (647V bladder cell line) [µM],IC50 (BC3C bladder cell line) [µM],IC50 (VMCUB1 bladder cell line) [µM],IC50 (KU1919 bladder cell line) [µM],IC50 (5637 bladder cell line) [µM],IC50 (SCABER bladder cell line) [µM],IC50 (HT1197 bladder cell line) [µM],IC50 (RT4 bladder cell line) [µM],IC50 (CLS439 bladder cell line) [µM]
0.228,0.04,0.29,"CCn1ncc(CN(C)C(=O)c2cc(-c3ccc(NCCNC)c(C)n3)nc3ccc(Cl)cc23)c1C [Compound 3, 6-chloro-N-[(1-ethyl-5-methyl-1H-pyrazol-4-yl)methyl]-N-methyl-2-(6-methyl-5-{[2-(methylamino)ethyl]amino}pyridin-2-yl)quinoline-4-carboxamide]",0.121,0.378,0.127,5.1,0.069,0.145,0.133,0.249,0.153,0.158,0.619
0.168,0.0854,0.143,CCc1ncc(CN(C)C(=O)c2cc(-c3ccc(NCCN(C)C)c(C)n3)nc3ccc(Cl)cc23)n1C [Compound 577],0.133,0.997,0.0535,1.19,0.051,0.102,0.111,0.182,0.234,0.199,0.461
0.322,0.0483,0.19,CCc1noc(CN(C)C(=O)c2cc(-c3ccc(NCCNC)c(C)n3)nc3ccc(Cl)cc23)c1C [Compound 537],0.224,0.749,0.125,4.06,0.117,0.217,0.197,0.252,0.346,0.344,0.849
0.126,0.0231,0.184,CCn1ncc(CN(C)C(=O)c2cc(-c3ccc(NC4CN(C)C4)c(C)n3)nc3ccc(Cl)cc23)c1C [Compound 480],0.11,0.546,0.052,10,0.116,0.0905,0.147,0.172,0.112,0.174,0.48
